Laboratory results taken from patent publication US9744236B2, “Photolabile compounds” (The Trustees of Columbia University in the City of New York, priority 2009, dated 2017).
Read-outs that look alike come from different tables or passages of the source.

Columns and labels:
[1] = system: mouse cortical neuron; assay: Whole-cell patch-clamp of cortical neuron, perfusion; format: cell-based; details: 1 μM via perfusion
From the text: FIGS. 13A and 13B: FIG. 13A depicts the structure of TzGly. […] The measurement results were obtained by the whole-cell patch-clamp method, as known and used in the art.

[2] = system: Retzius (Rz) cells in the ganglion; assay: Intracellular voltage recording of leech ganglion neuron with light flash uncaging; details: for neuron spiking activity on addition, before light: ˜100 μM in saline, no flash; for neuron spiking activity after light flash: pulsed Xe lamp flash
Method: Hirudo medicinalis has a central nerve cord with several ganglia, each one containing about 400 neurons arranged in a known pattern. (W.-R. Schlue et al., 1980, J. Exp. Biol., 82:23-34). An entire ganglion was mounted on a dish. The transmembrane potential for a single cell (a neuron) in the ganglion was recorded by inserting inside the neuron a glass micropipet with a micrometer-sized end, filled with saturated aqueous KCl that acts as a luggin bridge for an Ag/AgCl electrode. Another Ag/AgCl electrode was used as a reference. The signal was taken with an AM-System 1600 amplifier, and the entire setup was covered with a Faraday cage. A 12 bit A/D acquisition card was used to digitize the data using an ad-hoc program written in QuickBasic.
Low Ca^2+-high Mg^2+ saline solution (NaCl, 102 mM; KCl, 4 mM; CaCl2: 1 mM; and MgCl2: 10 mM; Tris base, pH 5.4 adjusted to 7.4) was perfused through the dish. […] A pulsed Xe lamp located under the dish was used to irradiate the solution. UV light was removed using a band-pass filter at 500 nm.
After impaling the cell with an electrode, many experiments were performed on the same cell to ensure reproducibility. […] 300 seconds later, at 5500 s, a light flash was directed to the ganglion.

[3] = Dark stability and recombination followed by UV-vis spectra; format: physicochemical
From the text: The photoproducts after exposure to light were Ru(bpy)2(4AP)(H2O) and free 4AP.
(§1) Several ruthenium polypyridyl complexes present this behavior. (D. V. Pinnick et al., 1984, Inorg. Chem., 23:1440-1445).

[4] = Photorelease of 4AP from [Ru(bpy)2(4AP)2]Cl2 under visible light (UV-vis, NMR); format: physicochemical
Method: (§2) UV-vis spectra in water were obtained with an HP 8453 diode array spectrophotometer. RMN ^1H spectra were obtained using a Bruker 500 MHz equipment. CV measurements were performed with a PAR 273A potentiostat. Irradiation was effected by means of a pulsed Xe lamp, (pulse energy ˜0.5 J), with a low-pass filter at 480 nm. Irradiation using a 473 nm DPSS laser gave similar results.
as §1
Although at pH 7 the spectrum of the irradiated complex is very similar to that of the original complex, a diminished shoulder at 470 nm becomes evident. To determine the nature of the photoreaction, NMR spectra were taken before and after irradiation with visible light. […] After irradiation, this signal decreased, and two new signals appeared at lower fields: one corresponding to the free ligand (m3), and the other corresponding to the aquo-4AP complex (m2), indicating photorelease of the 4AP. These two latter signals integrated for 0.30 and 0.27 of the initial signal, which corresponds to a photoreaction of 60%.
(§3) (See, e.g., E. S. Dodsworth et al., 1986, Chem. Phys. Lett., 124:152-158). The photoactivity of these compounds has been explained in terms of a reaction pathway that involves the transition between the MLCT state to a lower-energy d-d state, which promotes ligand release. There is a direct correspondence between the energy of the MLCT transition and the quantum yield of the photoreaction. For [Ru(bpy)2(4AP)CH3CN]^2+, the photoreaction yield is about φPR=0.4. Since [Ru(bpy)2(4AP)2]Cl2 presents a red-shifted band, a lower photoreaction yield is expected. An estimate based on early experiments leads to an estimate of φPR≅0.02 at 473 nm.

[5] = Cyclic voltammetry, redox potential; format: physicochemical; details: in water, versus Ag/AgCl
Method: as §2, §3
Its aqueous solutions present a strong metal to ligand charge-transfer band (MLCT band) at 450 nm, characteristic of this family of Ru polypyridines.

[6] = system: E. coli culture; assay: Light-patterned uncaging of MTG in bacterial culture with X-Gal; format: cell-based; details: 1 mM complex, 0.02% X-Gal, 20 minutes irradiation, then 37° C.
Method: A handheld projector 3M (110 MPro) is used to irradiate for 20 minutes an E. coli culture growing in a piece of 7 cm diameter whatman filter paper soaked in LB medium containing 1 mM [(Ru(bpy)2P(Me)3(MTG)]^+2 and 0.02% X-Gal (FIG. 24A). After image projection, the culture is left at 37° C. for until blue precipitate is noticed (˜40 minutes, FIG. 24B).

[7] = Photolysis of [Ru(bpy)2(PMe3)(MTG)]+2, UV-Vis; format: physicochemical
Method: A total of 67 mg of [Ru(bpy)2(PMe3)Cl]PF6 were suspended in 4 ml acetone and 2 ml water, and were heated and stirred at 80° C. until dissolution. Evaporated acetone was gradually replaced with water or acetone to keep total volume constant but avoiding precipitation. All the following was performed under dim red light. 100 mg of D(+)methylthiogalactose were added and the mixture was kept at 80° C. for 5 hours: The reaction progress was followed by UV-Vis spectrophotometry until the aquo complex was no longer detectable. The solution was cooled in ice-cold water and saturated [BPh4]^− as sodium salt was added carefully. The pale yellow precipitate was washed six times in ice cold water by resuspending the precipitate and centrifugation. NMR spectra were taken in a 500 MHz Bruker Avance II spectrometer. Photolysis of the NMR sample was performed inside the unopened NMR tube, by means of a custom-built NMR photolysis device based in 10 high current (100 mA) LEDs with emission wavelength centered at 520+/−20 nm.
The complex has a molar absorptivity coefficient of ˜3100 and a maximum absorption wavelength in the visible range at 422 nm. Photolysis quantum yield is 0.3. Successive photolysis products of the same sample are shown in black (FIG. 21).

[8] = Fluorescence emission quantum yield before and after irradiation; format: physicochemical
From the text: All reagents were purchased from Sigma-Aldrich and used as received. Ru(bpy)2Cl2 was synthesized according to the literature using water as solvent (Viala, C.; Coudret, C. Inorg. Chim. Acta 2006, 359: 984-989). UV-vis spectra were taken with a HP8453 diode-array spectrometer. NMR spectra were obtained using a 500 MHz Bruker AM-500. Fluorescence emission measurements were made with a PTI Quantamaster spectrofluorometer, corrected for the instruments response function. Rhodamine B was used as fluorescence standard of emission quantum yield (φ=0.31 in aqueous solutions). Quantum yield of the complex was obtained directly from the ratio of the spectral areas, which present the same shape.
FIG. 20 depicts the emission spectra of the complex during irradiation. The maximum and the shape of the initial emission spectrum is the same as that of the free ligand RhodB-MAPN but the emission quantum yield is much lower, around pt=0.04. Quantum yields are easily calculated integrating the spectral areas. After irradiation with a 473 nm laser, RhodB-MAPN is released and the solution increases its fluorescence up to 6 fold, to φt=0.24.

[9] = Photouncaging quantum yield; format: physicochemical
Method: The photouncaging quantum yield measurements were performed with a Nd:YAG diode pumped solid state laser doubled to 473 nm with a constant power of 6.3 mW. The light was collimated and sent through an optical path of 1 cm into a fluorescence glass cuvette, with stirring. Total irradiation energy was measured using a Coherent Fieldmaster FM light meter with a visible light photodiode model SR45.
The quantum yield of rhodamine photorelease was calculated after the analysis of fluorescence emission data during photouncaging at 473 nm. A complete spectrum was obtained once per second. Absorption of light by the complex [Ru(bpy)2(RhodB-MAPN)Cl]^+ yields the aquo complex [Ru(bpy)2(H2O)Cl]^+ and free RhodB-MAPN. In each irradiation period the amount of aquo complex and free RhodB-MAPN generated is given by the following: δn=δtIφPU(1−10^−AbsT)AbsR/AbsT where δt is the irradiation period, I the light intensity in moles of photons per second, φPU is the quantum yield of photouncaging, AbsR is the absorbance of the photoactive species [Ru(bpy)2(RhodB-MAPN)Cl]^+ at 473 nm and AbsT is the total absorbance of the irradiated solution. By means of finite element calculation of the former equation a photouncaging quantum yield of φPU=0.12 at 25° C. was calculated. This value is in good agreement with the reported quantum yields for similar complexes. […]

[10] = Photorelease of TzGly from [Ru(bpy)2(TzGly)(py)]Cl2; format: physicochemical; details: 470 nm

Compound: NC(C(=O)O)c1nnn[nH]1 (racemic) [TzGly, (RS)-(tetrazol-5-yl)glycine]
- effect on neuron [1]: spiking

Compound: [Cl][Ru][Cl].c1ccc(-c2ccccn2)nc1.c1ccc(-c2ccccn2)nc1.c1ccc(-c2ccccn2)nc1 [Ru(bpy)3Cl2, reference compound]
- neuron spiking activity on addition, before light [2]: without significant changes in activity
- neuron spiking activity after light flash ([2]; ˜100 μM): after a short time the activity decreased to the basal level

Compound: Nc1ccncc1.Nc1ccncc1.[Cl-].[Cl-].[Ru+2].c1ccc(-c2ccccn2)nc1.c1ccc(-c2ccccn2)nc1 [[Ru(bpy)2(4AP)2]Cl2]
- time without dark decomposition ([3]; in the dark): more than 20 hours
- 4AP recombination ([3]; irradiated solution, after 7 hours in the dark): less than 4%
- stability in the dark ([3]; water): stable in the dark
- extent of photoreaction (NMR signal integration) ([4]; after irradiation with visible light): 60%
- photoreaction yield φPR ([4]; at 473 nm, estimate based on early experiments): ~0.02
- toxicity on the neuron ([2]; during the experiments): Neither toxicity nor a deleterious effect was observed
- neuron spiking activity on addition, before light [2]: the activity remained unchanged
- neuron spiking activity after light flash ([2]; ˜100 μM): sudden activity was recorded and it remained high after 300 s
- neuron spiking activity after second light pulse ([2]; ˜100 μM, second light pulse at 6750 s): even higher activity
- redox potential of the couple R^III/R^II [5]: 0.76 V

Compound: CC#N.Nc1ccncc1.[Ru+2].c1ccc(-c2ccccn2)nc1.c1ccc(-c2ccccn2)nc1 [[Ru(bpy)2(4AP)CH3CN]^2+]
- photoreaction yield φPR [4]: ~0.4

Compound: CP(C)C.CS[C@@H]1O[C@H](CO)[C@H](O)[C@H](O)[C@H]1O.[Ru+2].c1ccc(-c2ccccn2)nc1.c1ccc(-c2ccccn2)nc1 [[Ru(bpy)2(PMe3)(MTG)]^+2]
- time until blue precipitate is noticed [6]: ~40 min
- photolysis quantum yield [7]: 0.3

Compound: CCN(CC)c1ccc2c(-c3ccccc3C(=O)N(C)CCC#N)c3ccc(=[N+](CC)CC)cc-3oc2c1.[Cl][Ru+].c1ccc(-c2ccccn2)nc1.c1ccc(-c2ccccn2)nc1 [[Ru(bpy)2(RhodB-MAPN)Cl]^+]
- increase of fluorescence ([8]; after blue light (473 nm) irradiation): up to 6 fold
- emission quantum yield ([8]; after irradiation with a 473 nm laser): 0.24
- emission quantum yield ([8]; aqueous, before irradiation): ~0.04
- photouncaging quantum yield φPU ([9]; 473 nm, 25° C.): 0.12

Compound: C=CCC#N.[Cl][Ru+].c1ccc(-c2ccccn2)nc1.c1ccc(-c2ccccn2)nc1 [[Ru(bpy)2(VACN)Cl]^+]
- photouncaging quantum yield φPU (VACN release) [9]: 0.21

Compound: [Ru(bpy)2(TzGly)(py)]Cl2
- photorelease on irradiation [10]: photoreleased TzGly
